# Experimental data taken from patent US20050053625A1, “Method of treating viral infections” (priority 2001, published 2005).
# Columns and labels:
# HBV [1] = assay: Secretion of HBV viral particles from Hep G2.2.15 cells (Proteinase K/DNase method); type: cell-based, Hepatitis B virus; settings: 4.5 mM, 7 days, Hep G2 2.2.15 cells, FIG. 3
# Description: Virus secretion into the media was detected by a method that would differentiate between enveloped and un-enveloped DNA. Glucosidase inhibitors reduce the secretion of enveloped virus. Enveloped virus is resistant to Proteinase K/Dnase treatment; un-enveloped virus is not. (+) or (−) indicates the addition of DNase. See text for more details. From left to right: Untreated; 3TC (3.5 μM); […] (4.5 mM).
# Inhibition of the ER a-glucosidases inhibits the secretion of enveloped HBV. The first glycan processing events are the removal of the terminal glucose residues in the ER by α-glucosidase I and II (FIG. 2). The α-glucosidase inhibitor N-butyldeoxynojirimycin (NB-DNJ) has been used to study the role of glucose processing in several proteins including human immunodeficiency virus (HIV-1) gp120 (Fisher et al., 1995) and the enzyme tyrosinase which is involved in melanin biosynthesis (Petrescu et al., 1996). […] Hep G2 2.2.15 cells were either left untreated or treated with 3TC (3.5 μM) or the glucosidase inhibitor NB-DNJ (4.5 mM) and 7 days latter the amount of enveloped virus detected in the culture medium by a method that would differentiate between enveloped and un-enveloped virus (Wei et al., 1997). This method realizes upon the resistance of enveloped HBV to limited Proteinse K treatment (Wei et al., 1997). […]
# WHV = settings: cited from earlier work
# HIV = settings: relative to cells not exposed; cited from earlier work
# HBV [2] = settings: cited from earlier work
# HBV M protein = type: cell-based; settings: for secretion of the M protein: indicated concentrations, three days, FIG. 4
# Description: Hep G2 cells were transfected with an M only expression vector and the next day the cells divided equally into 6 well trays. Compound was added one day latter at the indicated concentrations and the media changed every two days. The presence of sub-viral particles in the medium was detected via the Abbott Diagnostics Auszyme Monoclonal Diagnostic Kit as per manufacture's directions. For Graph: Y-axis is the OD at 492. X-axis indicates the compounds or cells used in the assay.
# Hep G2 cells transfected with the HBV M expression vector were treated with the glucosidase inhibitor NB-DNJ (4.5 mM and 6 days latter the amount of M protein associated with the culture medium (secreted) and the cells (retained) determined by ELISA. See text for more details. For graph: x-axis, Drug treatment and location of protein; for y-axis, % of HBV M protein as compared to untreated
# Hep G2 cells were transfected with the M only expression vector and seeded as daughter flasks into 6 well trays. Following 4 days of treatment of glucosidase inhibitor (NB-DNJ (4.5 mM)), drug was either removed (in samples labels as —R) or left on as a control. Day 0 is the time in which drug was removed. […] Day 3 and Day 5 are days after drug removal. For Graph: Y-axis is the OD at 492. X-axis indicates the compounds or cells used in the assay. UN=untreated sample; Un-R is the untreated rebound sample; NB=N-butyl-DNJ; NB-R=N-butyl-DNJ rebound sample.
# HBV M protein secretion is sensitive to glucosidase inhibition. Our previous work has determined that the secretion of HBV sub-viral particles containing the M protein was sensitive to glucosidase inhibition. (Mehta et al., 1997). That is, when Hep G2 2.215 cells were treated with the glucosidase inhibitor NB-DNJ, purified sub-viral particles appeared to lack the M protein. However, it was unclear if this was the result of the M protein's sensitivity to glucosidase inhibition or required some other viral factor. To test this hypothesis, an expression vector (pCMV-MS^−X) directs the expression of HBV M, but no other viral protein, was created. This “M only” expression vector was then used to determine if the M protein itself, in the absence of other viral functions, was sensitive to glucosidase inhibition. In addition, an expression vector, unable to express “M”, but able to express “S” was made on the same plasmid backbone as the “M” only vector, as was used as a control (pCMV-M^−SX). For these studies three imino sugars were used: N-butyl-DNJ, N-nonyl-DNJ and N-nonyl-DGJ. N-butyl-DNJ is our standard glucosidase inhibitor and has been used by several labs for over 10 years (Carlson et al.,1995, Block et al., 1994). […] Briefly, Hep G2 cells were transfected with the expression vectors pCMV HBV MS^−X and pCMV HBV M^−SX and subsequently seeded into fresh 6 well trays. The transfected cells were treated with the indicated concentrations of NB-DNJ, NN-DNJ or NN-DGJ (as a negative control) and three days latter the media analyzed for the presence of the HBV M or HBV S protein as described in Mehta et al, 2001. […] Fore example, concentrations of NN-DNJ which have no impact upon glycan inhibition, as determined by glycan analysis or α-1-acid-glycoprotein secretion, had no effect upon HBV M protein secretion (data not shown). In contrast to the effect of the glucosidase inhibitors on M protein secretion, the secretion of the HBV S protein was insensitive to either NB-DNJ or NN-DNJ providing further proof that the S protein is insensitive to glucosidase inhibition (data not shown; Block et al., 1994, Mehta et al., 1997, Werr & Prange, 1998). To determine if the secretion of the HBV M protein was prevented by another non-glucosidase mechanism, other compounds with the same alkyl side chain (tail) but altered imino sugar head groups, were synthesized. For example, NN-DGJ has the same chain length as NN-DNJ but is not a glucosidase inhibitor. […]
# [3] = tested on: bovine viral diarrhea virus (BVDV); settings: comparison of N-butyl and N-nonyl DNJ; U.S. Pat. No. 6,465,487; cited from earlier work
# [4] = tested on: bovine viral diarrhea virus (BVDV); assay: BVDV in mammalian cells in tissue culture; type: cell-based
# Excerpt: We have discovered that cytotoxicity resulting from exposure of mammalian cells in tissue culture to bovine viral diarrhea virus (BVDV) is prevented by addition of a glucosidase inhibitor to the tissue culture medium. The glucosidase inhibitors useful according to the present invention include, but are not limited to a derivative of 1,5-dideoxy-1,5-imino-D-glucitol (DNJ), in particular, N-butyl-DNJ (NBDNJ). […] Because BVDV is an accepted tissue culture model of hepatitis C virus (HCV) (Henzler, H.-J. and K. Kaiser (1998) Nature Biotech 16:1077-1078), the compositions and methods described herein for inhibiting morphogenesis of BVDV are also useful for inhibiting morphogenesis of HCV.
# The substituents on the basic 1,5-dideoxy-1,5-imino-D-glucitol can influence the potency of the compound as an antiviral agent and additionally can preferentially target the molecule to one organ rather than another. […] Methods for comparing the potencies of various substituted compounds are provided in Example 1. […] Methods for determining preferential targeting properties of variously substituted DNJs is provided in Example 8 and FIG. 8 in U.S. Pat. No. 6,465,487.
# glucosidase = assay: Glucosidase / glycan processing inhibition in cells; type: cell-based
# HCV = settings: cited from earlier work
# HBV [5] = settings: chronic HBV patients; cited from earlier work
molecule,measurement,setting,value
"OC[C@H]1NC[C@H](O)[C@@H](O)[C@@H]1O [DNJ, 1,5-dideoxy-1,5-imino-D-glucitol]",secretion of enveloped virus versus un-enveloped virus,HBV [1],inhibits the secretion of enveloped virus more effectively than un-enveloped virus
"Cc1cn([C@H]2O[C@@H](CO)[C@H](O)[C@H]2F)c(=O)[nH]c1=O [L-FMAU, 1-(2-Fluro-5-Methy-B-L-Arabinofuranosyl)-Uracil]",decrease in the amount of serum WHsAg,WHV; long term treatment,10 fold
same,immune responses developed,"WHV; woodchucks, drug alone",limited cellular and humoral immune responses
"CCCCN1C[C@H](O)[C@@H](O)[C@H](O)[C@H]1CO [NB-DNJ, N-butyl-1,5-dideoxy-1,5-imino-D-glucitol]",infectivity of virus particles released from HIV-infected cells,HIV,greatly reduced
same,secretion of HBV viral particles,HBV [2]; Hep G2.2.15 cells,prevents the secretion of HBV viral particles
same,egress of subviral particles,HBV [2]; stable transfected HepG2 cells,does not prevent egress
same,egress of the mature HBV virion,HBV [2]; stable transfected HepG2 cells,prevents egress
same,amount of M protein in the culture medium after 4 days of treatment,"HBV M protein; 4.5 mM, 4 days, FIG. 6",substantial decrease
same,HBV M protein associated with the cells (retained),"HBV M protein; 4.5 mM, 6 days, ELISA, FIG. 5",retention of the HBV M protein
same,HBV M protein associated with the culture medium (secreted),"HBV M protein; 4.5 mM, 6 days, ELISA, FIG. 5",reduction in the amount of HBV M protein associated with the culture medium
same,level of M protein in the culture medium after compound removal,"HBV M protein; after 4 days treatment, drug removed, FIG. 6",remained depressed until the 5th day
same,secretion of the M protein,HBV M protein,prevented the secretion of the M protein
same,M protein secretion at lower concentrations,"HBV M protein; lower concentrations, which inhibit lower levels of glucosidase",able to inhibit M protein secretion
same,effect on cell number or viability,"HBV M protein; sustained reduction experiment, data not shown",not due to an effect on cell number or viability
same,potency in inhibiting the intracellular production of BVDV virus,[3],less potent
same,toxicity toward host cells,[4]; conditions inhibiting BVDV-induced cytotoxicity,"little, if any, toxicity"
same,BVDV-induced cytotoxicity,[4]; tissue culture,inhibition of BVDV-induced cytotoxicity was achieved
same,time to return of glucosidase enzyme function after removal of inhibitor,"glucosidase; not shown or Tan et al, 1994",less than 3 hours
"CCCCCCCCCN1C[C@H](O)[C@@H](O)[C@@H](O)[C@H]1CO [NN-DGJ, reference compound]",secretion of the M protein,HBV M protein,"but not NN-DGJ which does not inhibit glucosidase, reduces the amount of M detected in the medium"
same,glucosidase inhibition,glucosidase; negative control,does not inhibit glucosidase
Alpha-interferon,patients with long-term improvement,HCV,5%
same,treated patients achieving certain serological milestones,HBV [5],7-40%
